Assay results published in publication PMC10893631, “Receptor-based pharmacophore modeling, molecular docking, synthesis and biological evaluation of novel VEGFR-2, FGFR-1, and BRAF multi-kinase inhibitors” (BMC Chemistry, 2024).

What was measured:
Experiment in all cases: NCI SRB growth inhibition (single dose 10 µM / five-dose)
Format in all cases: cell-based, human
OVCAR-5 = conditions: Homo sapiens; for inhibition at 10 µM: OVCAR-5 (Ovarian cancer), read-out: GI%
Summary of the method: (§1)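 Cytotoxicity in the NCI panel of sixty human tumour lines was measured by sulforhodamine B protein staining. Each agent was tested in DMSO-derived dilutions at five concentrations, and TGI was read where treated absorbance equalled time-zero absorbance.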

HOP-62 = conditions: Homo sapiens; for inhibition at 10 µM: HOP-62 (Non-small cell lung cancer), read-out: GI%
Summary of the method: as §1

HCC-2998 = conditions: Homo sapiens; for inhibition at 10 µM: HCC-2998 (Colon cancer), read-out: GI%
Summary of the method: as §1

PC-3 = conditions: Homo sapiens; for inhibition at 10 µM: PC-3 (Prostate cancer), read-out: GI%
Summary of the method: as §1

NCI-H522 = conditions: Homo sapiens; for inhibition at 10 µM: NCI-H522 (Non-small cell lung cancer), read-out: GI%
Summary of the method: as §1

MOLT-4 = conditions: Homo sapiens; for inhibition at 10 µM: MOLT-4 (Leukemia), read-out: GI%
Summary of the method: as §1

TK-10 = conditions: Homo sapiens; for inhibition at 10 µM: TK-10 (Renal cancer), read-out: GI%
Summary of the method: as §1

SNB-19 = conditions: Homo sapiens; for inhibition at 10 µM: SNB-19 (CNS cancer), read-out: GI%
Summary of the method: as §1

RPMI-8226 = conditions: Homo sapiens; for inhibition at 10 µM: RPMI-8226 (Leukemia), read-out: GI%
Summary of the method: as §1

M14 = conditions: Homo sapiens; for inhibition at 10 µM: M14 (Melanoma), read-out: GI%
Summary of the method: as §1

OVCAR-3 = conditions: Homo sapiens; for inhibition at 10 µM: OVCAR-3 (Ovarian cancer), read-out: GI%
Summary of the method: as §1

NCI-H23 = conditions: Homo sapiens; for inhibition at 10 µM: NCI-H23 (Non-small cell lung cancer), read-out: GI%
Summary of the method: as §1

SR = conditions: Homo sapiens; for inhibition at 10 µM: SR (Leukemia), read-out: GI%
Summary of the method: as §1

NCI-H226 = conditions: Homo sapiens; for inhibition at 10 µM: NCI-H226 (Non-small cell lung cancer), read-out: GI%
Summary of the method: as §1

HOP-92 = conditions: Homo sapiens; for inhibition at 10 µM: HOP-92 (Non-small cell lung cancer), read-out: GI%
Summary of the method: as §1

SW-620 = conditions: Homo sapiens; for inhibition at 10 µM: SW-620 (Colon cancer), read-out: GI%
Summary of the method: as §1

MCF7 = conditions: Homo sapiens; for inhibition at 10 µM: MCF7 (Breast cancer), read-out: GI%
Summary of the method: as §1

SF-268 = conditions: Homo sapiens; for inhibition at 10 µM: SF-268 (CNS cancer), read-out: GI%
Summary of the method: as §1

SF-539 = conditions: Homo sapiens; for inhibition at 10 µM: SF-539 (CNS cancer), read-out: GI%
Summary of the method: as §1

U251 = conditions: Homo sapiens, U-251; for inhibition at 10 µM: U251 (CNS cancer), read-out: GI%
Summary of the method: as §1

EKVX = conditions: Homo sapiens; for inhibition at 10 µM: EKVX (Non-small cell lung cancer), read-out: GI%
Summary of the method: as §1

UACC-62 = conditions: Homo sapiens; for inhibition at 10 µM: UACC-62 (Melanoma), read-out: GI%
Summary of the method: as §1

SN12C = conditions: Homo sapiens; for inhibition at 10 µM: SN12C (Renal cancer), read-out: GI%
Summary of the method: as §1

HT29 = conditions: Homo sapiens, HT-29; HT29 (Colon cancer), 10 µM; read-out: GI%
Summary of the method: as §1

Work on `COc1ccc(-c2nc3cc(C(=O)NN=Cc4ccccc4O)ccc3[nH]2)cc1` [8h, N'-(2-Hydroxybenzylidene)-2-(4-methoxyphenyl)-1H-benzo[d]imidazole-5-carbohydrazide] yielded an inhibition at 10 µM (OVCAR-5) of over 100%, a GI50 (OVCAR-5; OVCAR-5, Ovarian cancer, five-dose) of 6.55 µM and an inhibition at 10 µM (HOP-62) of over 100%. For the same compound, the GI50 (HOP-62; HOP-62, Non-small cell lung cancer, five-dose) was 5.09 µM, the inhibition at 10 µM (HCC-2998) was 99.6% and the GI50 (HCC-2998; HCC-2998, Colon cancer, five-dose) was 4.43 µM. It also gave an inhibition at 10 µM (PC-3) of over 100%, a GI50 (PC-3; PC-3, Prostate cancer, five-dose) of 1.77 µM and an inhibition at 10 µM (NCI-H522) of over 100%. The GI50 (NCI-H522; NCI-H522, Non-small cell lung cancer, five-dose) was 1.54 µM, the inhibition at 10 µM (MOLT-4) was 88.5% and the GI50 (MOLT-4; MOLT-4, Leukemia, five-dose) was 1.7 µM. The inhibition at 10 µM (TK-10) was over 100%, the GI50 (TK-10; TK-10, Renal cancer, five-dose) was 6.19 µM and the inhibition at 10 µM (SNB-19) was over 100%. The GI50 (SNB-19; SNB-19, CNS cancer, five-dose) was 1.76 µM, the inhibition at 10 µM (RPMI-8226) was 96.7% and the GI50 (RPMI-8226; RPMI-8226, Leukemia, five-dose) was 1.39 µM. The inhibition at 10 µM (M14) was over 100%, the GI50 (M14; M14, Melanoma, five-dose) was 3.65 µM and the inhibition at 10 µM (OVCAR-3) was over 100%. It also gave a GI50 (OVCAR-3; OVCAR-3, Ovarian cancer, five-dose) of 1.98 µM, an inhibition at 10 µM (NCI-H23) of 94.6% and a GI50 (NCI-H23; NCI-H23, Non-small cell lung cancer, five-dose) of 2.06 µM. The inhibition at 10 µM (SR) was 85.9%, the GI50 (SR; SR, Leukemia, five-dose) was 1.17 µM and the inhibition at 10 µM (NCI-H226) was over 100%. For the same compound, the GI50 (NCI-H226; NCI-H226, Non-small cell lung cancer, five-dose) was 6.94 µM, the inhibition at 10 µM (HOP-92) was over 100% and the GI50 (HOP-92; HOP-92, Non-small cell lung cancer, five-dose) was 2.83 µM. The inhibition at 10 µM (SW-620) was over 100%, the GI50 (SW-620; SW-620, Colon cancer, five-dose) was 1.75 µM and the inhibition at 10 µM (MCF7) was over 100%. The GI50 (MCF7; MCF7, Breast cancer, five-dose) was 1.67 µM, the inhibition at 10 µM (SF-268) was over 100% and the GI50 (SF-268; SF-268, CNS cancer, five-dose) was 0.92 µM. For the same compound, the inhibition at 10 µM (SF-539) was over 100%, the GI50 (SF-539; SF-539, CNS cancer, five-dose) was 2.05 µM and the inhibition at 10 µM (U251) was over 100%. It also gave a GI50 (U251; U251, CNS cancer, five-dose) of 1.64 µM, an inhibition at 10 µM (EKVX) of 92.2% and a GI50 (EKVX; EKVX, Non-small cell lung cancer, five-dose) of 3.24 µM. For the same compound, the inhibition at 10 µM (UACC-62) was over 100%, the GI50 (UACC-62; UACC-62, Melanoma, five-dose) was 2.53 µM and the inhibition at 10 µM (SN12C) was over 100%. For the same compound, the GI50 (SN12C; SN12C, Renal cancer, five-dose) was 4.99 µM and the inhibition at 10 µM (HT29) was over 100%.

`COc1ccc(-c2nc3cc(C(=O)NN=Cc4ccc(OC)c(O)c4)ccc3[nH]2)cc1` [8l, N'-(3-Hydroxy-4-methoxybenzylidene)-2-(4-methoxyphenyl)-1H-benzo[d]imidazole-5-carbohydrazide] was tested, and the inhibition at 10 µM (OVCAR-5) was under 5%, the inhibition at 10 µM (HOP-62) was 55.5% and the inhibition at 10 µM (HCC-2998) was 15%. It also gave an inhibition at 10 µM (PC-3) of 51.2%, an inhibition at 10 µM (NCI-H522) of 38.2% and an inhibition at 10 µM (MOLT-4) of 78.6%. It also gave an inhibition at 10 µM (TK-10) of under 5%, an inhibition at 10 µM (SNB-19) of 16.1% and an inhibition at 10 µM (RPMI-8226) of 32.4%. The inhibition at 10 µM (M14) was 63.5%, the inhibition at 10 µM (OVCAR-3) was 37.6% and the inhibition at 10 µM (NCI-H23) was 24%. The inhibition at 10 µM (SR) was 72.2%, the inhibition at 10 µM (NCI-H226) was 24.5% and the inhibition at 10 µM (HOP-92) was 17.4%. For the same compound, the inhibition at 10 µM (SW-620) was 21.8%, the inhibition at 10 µM (MCF7) was 77.8% and the inhibition at 10 µM (SF-268) was 40.4%. The inhibition at 10 µM (SF-539) was 42.6%, the inhibition at 10 µM (U251) was 44.8% and the inhibition at 10 µM (EKVX) was 12.9%. It also gave an inhibition at 10 µM (UACC-62) of 47.6%, an inhibition at 10 µM (SN12C) of 27% and an inhibition at 10 µM (HT29) of over 100%.
